“Also recorded” adds a separate entry of the source. Where a SMILES comes first, the peptide text is derived from it. Bridges are numbered along the chain shown (N, C = ends). [ ]: non-standard residue; d: D form. Cha = N[C@@H](CC1CCCCC1)C(=O)O
Tested on: cultured vascular smooth muscle cells (VSMC) derived from the aortas of rats
Experiment: cGMP producing activity in cultured VSMC (cGMP radioimmunoassay)
Type: cell-based, rat
Settings: for cGMP producing activity (in words): comparison with CNP-22 or α-hANP; for cGMP producing activity (% increase for 1 μm): specific activity compared to 1 μm α-hANP (2000 fmol/400000 cells) = 100, peptide at 1 μm
Description: 1-1: Measurement of CGMP Producing Activity
The above-mentioned activity of compounds synthesized according to the present invention was measured by the methods of Hirata et al. (Biochem. Biophys. Res. Commun., 128, 538, 1985) and Scarborough et al. (J. Biol. Chem., 261, 12960, 1986). The cells used were cultured vascular smooth muscle cells (hereunder abbreviated as VSMC) derived from the aortas of rats. From 10^-9 to 10^-6 M of α-hANP or a 20 peptide of interest was incubated together with VSMC and the amount cGMP produced was measured by cGMP radioimmunoassay. Percent maximum reactivity for each peptide, with the value of maximum reactivity for α-hANP being taken as 100%, was used as an indicator of activity.

Row | Structure (SMILES) | cGMP producing activity (in words) (rat VSMC) | cGMP producing activity (% increase for 1 μm) | cGMP producing activity relative to α-hANP (rat VSMC, times as high activity as α-hANP)
1 | CC[C@H](C)[C@@H]1NC(=O)[C@H](CCCNC(=N)N)NC(=O)[C@H](CC(=O)O)NC(=O)[C@H](CCSC)NC(=O)[C@H](CCCCN)NC(=O)CNC(=O)CNC(=O)[C@H](Cc2ccccc2)NC(=O)[C@@H](NC(=O)CNC(=O)[C@H](CCCCN)NC(=O)[C@H](CO)NC(=O)[C@H](CC(C)C)NC(=O)CN)CSSC[C@@H](C(=O)O)NC(=O)CNC(=O)[C@H](CC(C)C)NC(=O)CNC(=O)[C@H](CO)NC(=O)[C@H](CCSC)NC(=O)[C@H](CO)NC(=O)CNC1=O [Compound 11] (H-GLSKGCFGGKMDRIGSMSGLGC-OH; disulfide 6-22) | particularly marked; also recorded: lower in cGMP producing activity than the other one- and two-residue substituted derivatives | 71% | 
2 | CC[C@H](C)[C@@H]1NC(=O)[C@H](CCCNC(=N)N)NC(=O)[C@H](CC(=O)O)NC(=O)[C@H](CC(C)C)NC(=O)[C@H](CCCCN)NC(=O)[C@H](CC(C)C)NC(=O)CNC(=O)[C@H](Cc2ccccc2)NC(=O)[C@@H](NC(=O)CNC(=O)[C@H](CCCCN)NC(=O)[C@H](CO)NC(=O)[C@H](CC(C)C)NC(=O)CN)CSSC[C@@H](C(=O)N[C@@H](CC(N)=O)C(=O)N[C@@H](CO)C(=O)N[C@@H](Cc2ccccc2)C(=O)N[C@@H](CCCNC(=N)N)C(=O)N[C@@H](Cc2ccc(O)cc2)C(=O)O)NC(=O)CNC(=O)[C@H](CC(C)C)NC(=O)CNC(=O)[C@H](CO)NC(=O)[C@H](CCSC)NC(=O)[C@H](CO)NC(=O)CNC1=O [Compound 3] | strong cGMP producing activity at a comparable level to that exhibited by CNP-22 | 667% | 
3 | CC[C@H](C)[C@@H]1NC(=O)[C@H](CCCNC(=N)N)NC(=O)[C@H](CC(=O)O)NC(=O)[C@H](CC(C)C)NC(=O)[C@H](CCCNC(=N)N)NC(=O)CNC(=O)CNC(=O)[C@H](Cc2ccccc2)NC(=O)[C@@H](NC(=O)CNC(=O)[C@H](CCCCN)NC(=O)[C@H](CO)NC(=O)[C@H](CC(C)C)NC(=O)CN)CSSC[C@@H](C(=O)O)NC(=O)CNC(=O)[C@H](CC(C)C)NC(=O)CNC(=O)[C@H](CO)NC(=O)[C@H](CCSC)NC(=O)[C@H](CO)NC(=O)CNC1=O [Compound 13] (H-GLSKGCFGGRLDRIGSMSGLGC-OH; disulfide 6-22) |  | 58% | 
4 | CC[C@H](C)[C@@H]1NC(=O)[C@H](CCCNC(=N)N)NC(=O)[C@H](CC(=O)O)NC(=O)[C@H](CC(C)C)NC(=O)[C@H](CCCCN)NC(=O)[C@H](CC(C)C)NC(=O)CNC(=O)[C@H](CC2CCCCC2)NC(=O)[C@@H](N)CSSC[C@@H](C(=O)N[C@@H](CC(N)=O)C(=O)N[C@@H](CO)C(=O)N[C@@H](Cc2ccccc2)C(=O)N[C@@H](CCCNC(=N)N)C(=O)N[C@@H](Cc2ccc(O)cc2)C(=O)O)NC(=O)CNC(=O)[C@H](CC(C)C)NC(=O)CNC(=O)[C@H](CO)NC(=O)[C@H](CCC(N)=O)NC(=O)[C@H](C)NC(=O)CNC1=O [Compound 27] (H-C[Cha]GLKLDRIGAQSGLGCNSFRY-OH; disulfide 1-17) |  | 523% | 4-6 times

From patent US5434133A, “CNP analog peptides and their use” (Suntory Limited, priority 1991, dated 1995)
